Reference: PubChem BioAssay (NCI)
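These data come from cells grown in 96-well plates and exposed to compound for 48 hours at five concentrations. TGI is the concentration that stops growth completely.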

Experiments:
Assay in all cases: NCI-60 cell line screen, 48 h
ACHN renal = test system: ACHN renal
MCF7 breast = test system: MCF7 breast
KM12 colon = test system: KM12 colon
SK-MEL-5 melanoma = test system: SK-MEL-5 melanoma
UACC-257 melanoma = test system: UACC-257 melanoma
SK-OV-3 ovarian = test system: SK-OV-3 ovarian
NCI-H23 lung = test system: NCI-H23 lung
NCI-H226 lung = test system: NCI-H226 lung
SN12C renal = test system: SN12C renal
SR leukemia = test system: SR leukemia

| Structure (SMILES) | TGI (ACHN renal) | TGI (MCF7 breast) | TGI (KM12 colon) | TGI (SK-MEL-5 melanoma) | TGI (UACC-257 melanoma) | TGI (SK-OV-3 ovarian) | TGI (NCI-H23 lung) | TGI (NCI-H226 lung) | TGI (SN12C renal) | TGI (SR leukemia) |
| --- | --- | --- | --- | --- | --- | --- | --- | --- | --- | --- |
| O=C1c2ccccc2CN1c1ccc(O)cc1 | > 100 µM | > 100 µM | > 100 µM | > 100 µM | > 100 µM | > 100 µM | > 100 µM | > 100 µM | > 100 µM | > 100 µM |
| CC(C)=CCc1c2c(c3occ(-c4ccc(O)c(O)c4)c(=O)c3c1O)C=CC(C)(C)O2 | 6.29 µM | 11.4 µM | 3.41 µM | 7.72 µM | 4.89 µM | 20.5 µM | 3.84 µM | 34.6 µM | 3.07 µM | 2.12 µM |
| CC(C)(C)N=c1n(C(C)(C)C)oc(=O)n1C(C)(C)C | > 100 µM | > 100 µM | > 100 µM | > 100 µM | > 100 µM | > 100 µM | > 100 µM | > 100 µM | > 100 µM | > 100 µM |
| O=c1c2ncn(C3CC(O)C(CO)O3)c2nnn1Cc1ccccc1[N+](=O)[O-] (stereo not given) | > 100 µM | > 100 µM | > 100 µM | > 100 µM | > 100 µM | > 100 µM | > 100 µM | > 100 µM | > 100 µM | 45.4 µM |
